Assay results taken from EP0600092A1, “THIAZOLE DERIVATIVE” (OTSUKA PHARMACEUTICAL CO., LTD., priority 1992, dated 1993).

test system: human neutrophilic leukocyctes; assay: Activity for inhibiting the generation of O2- in human neutrophilic leukocytes (FMLP-stimulated, ferricytochrome C method); type: cell-based; conditions: Leukocyte, O₂⁻ generation stimulated with 3×10⁻⁷ M FMLP at 37°C, cytochalasin B 5 µg/ml, pre-incubated with test compound 20 minutes, 4 minutes reduction, absorbance 550 nm, read-out: IC₅₀
Method: Activity for inhibiting the generation of O₂⁻ in human neutrophilic leukocyctes
Human neutrophilic leukocyctes were prepared in accordance with the method of M. Markert et al. [Methods in Enzymology, vol. 105; pp. 358-365 (1984)]. That is, a whole blood obtained from a healthy adult and treated by anticoagulation method was subjected to a dextranhypotonic treatment to obtain leukocyte cells. The leukocycte cells were then subjected to a density gradient ultracentrifugation by Ficoll-Paque to obtain a neutrophilic leukocyte fraction.
O₂⁻ generation was examined by the ferricytochrome C method in accordance with the mehtod of B.N. Cronstein et al. [Journal of Experimental Medicine, vol. 158, pp. 1160-1177 (1983)]. That is, […] of neutrophilic leukocytes were stimulated with 3×10⁻⁷ M of N-formyl-L-methionyl-L-leucyl-L-phenylalanine (FMLP) at 37°C in the presence of 1.3 mg/ml of ferricytochrome C and 5 µg/ml of cytochalasin B in a Hepes-buffered Hank's solution (pH 7.4); the amount of ferricytochrome C formed by 4 minutes of reduction was determined by measuring an absorbance at a wavelength of 550 nm using a spectrophotometer; an absorbance in the presence of 25.1 µg/ml of superoxide dismutase (SOD) was also measured; the difference of the two absorbances was taken as the amount of O₂⁻ generated. Each test compound was dissolved in dimethyl sulfoxide (DMSO); the solution was added to neutrophilic leukocytes before the addition of FMLP; then, the neutrophilic leukocytes were pre-incubated at 37°C for 20 minutes. By using the amount of O₂⁻ generated when the test compound solution was added and the amount of O₂⁻ generated when only the solvent (DMSO) was added, a ratio of inhibition (%) was calculated, and the activity for inhibiting O₂⁻ generation was expressed as 50% inhibitory concentration (IC₅₀).

Row | SMILES | IC50
1 | CCOc1ccc(-c2nc(-c3ccc(C(N)=S)cc3)cs2)cc1OCC [Example 17] | 66 nM
2 | CCOc1ccc(-c2nc(-c3ccc(C(=N)NO)cc3)cs2)cc1OCC [Example 18] | 13 nM
3 | CCOc1ccc(-c2nc(-c3ccc(C(=N)SC)cc3)cs2)cc1OCC [Example 19] | 200 nM
4 | CCOc1ccc(-c2nc(-c3ccc(NC(N)=S)cc3)cs2)cc1OCC [Example 20] | 30 nM
5 | CCOc1ccc(-c2nc(-c3cnccn3)cs2)cc1OCC [Example 23] | 72 nM
6 | CCOc1ccc(-c2nc(-c3cccc(C(N)=S)n3)cs2)cc1OCC [Example 24] | 55 nM
7 | CCOc1ccc(-c2nc(-c3cccc(C(=N)SC)n3)cs2)cc1OCC [Example 25] | 330 nM
8 | CCOc1ccc(-c2nc(-c3cc(N4CCN(C)CC4)ccn3)cs2)cc1OCC [Example 27] | 750 nM
9 | CCOc1ccc(-c2nc(-c3cccc(C(O)CN4CCN(C)CC4)n3)cs2)cc1OCC (stereo not shown) [Example 28] | 450 nM
10 | CCOc1ccc(-c2nc(-c3cccc(C(=N)NO)n3)cs2)cc1OCC [Example 29] | 230 nM
11 | CCOc1ccc(-c2nc(-c3ccc(O)c(-c4nnn[nH]4)c3)cs2)cc1OCC [Test compound 5, 2-(3,4-Diethoxyphenyl)-4-[3-(1,2,3,4-tetrazol-5-yl)-4-hydroxyphenyl]thiazole] | 240 nM
12 | COc1ccc(-c2nc(-c3ccc(O)c(C(=O)NO)c3)cs2)cc1OC [Test compound 13, Disodium [2-(3,4-dimethoxyphenyl)-4-thiazolyl]salicylhydroxamate] | 600 nM
13 | COc1ccc(-c2nc(-c3cccc(NC(=N)SC)c3)cs2)cc1OC [Test compound 16, 1-{3-[2-(3,4-Dimethoxyphenyl)-4-thiazolyl]phenyl}-2-methylisothiourea hydroiodide] | 350 nM
